Results: patent publication US20130061339A1, “METHOD OF DIAGNOSING TRICHOTILLOMANIA AND SIMILAR DISORDERS IN HUMANS AND RODENTS” (Purdue Research Foundation, priority 2011, published 2013)

Legend:
[1] = test system: trichotillomania patients; settings: 50 trichotillomania patients, randomized double-blind placebo study [2]; cited from earlier work
[2] = test system: barbering behavior in C57BL/6J mice; assay: barbering in mice after 24 weeks of feed supplemented with NAC; format: in vivo, mouse; settings: NAC 1 g/kg/day in feed, vs mice not treated with NAC, P=0.0152
Excerpt: (§1) Thirty-two female adult C57BL/6J mice (14 barbers and 18 non-barbers) were separated into cages with no barbers, and cages with at least one barber. Cages with no barbers were fed a diet to induce barbering, as per Dufour, et al.. Cages with barbers were fed a regular mouse diet. Half the cages in each group had their feed supplemented with NAC, at a dose of 1 g/kg/day per mouse. Urine was collected at baseline and 24 weeks, to measure: reductive capacity, which reflects the sum of unused antioxidants from the diet, and antioxidants produced to defend the body. The level of 8 hydroxy-2-deoxyguanosine (8-OH-dG) which measures DNA damage from ongoing oxidative stress was also measured at 24 weeks only. Urine concentration was controlled by measuring creatinine. Six animals provided urine too dilute for analysis. Barbering and patterns of hair loss were recorded every 2 weeks. Data were analyzed using generalized linear model (GLM) and logistic regression using JMP statistical software, available from SAS, Cary N.C.

[3] = standardized reductive capacity of urine after treatment; format: in vivo, mouse; settings: 24 weeks, NAC 1 g/kg/day in feed, mice that were and were not barbers at the start; P=0.0244
Excerpt: as §1

CC(=O)N[C@@H](CS)C(=O)O [NAC, N-acetylcysteine]
patients in whom symptoms were reduced [1]: 56%
proportion of mice barbering after 24 weeks of treatment (curative effect) ([2]; mice that were barbers at the start, regular diet): fewer mice treated with NAC were barbering
proportion of mice barbering after 24 weeks of treatment (preventative effect) ([2]; mice that were not barbers at the start, barbering-inducing diet): fewer mice treated with NAC were barbering
standardized reductive capacity of urine after treatment [3]: only increases reductive capacity in healthy mice
